Measured values taken from US20200002283A1, “PYRAZOLE DERIVATIVES HAVING ACTIVITY AGAINST PAIN” (priority 2016, published 2020).
Where two headings read alike, the source gives them in different places.

Key:
[1] = molecular target: Human α2δ-1 subunit of Cav2.2 calcium channel (Homo sapiens, UniProt P54289); assay: Human α2δ-1 subunit of Cav2.2 calcium channel assay ([3H]-Gabapentin binding)
Method: Human α2δ-1 Subunit of Cav2.2 Calcium Channel Assay
Human α2δ-1 enriched membranes (2.5 μg) were incubated with 15 nM of radiolabeled [3H]-Gabapentin in assay buffer containing Hepes-KOH 10 mM, pH 7.4. NSB (non specific binding) was measured by adding 10 μM pregabalin. After 60 min incubation at 27° C., binding reaction was terminated by filtering through Multiscreen GF/C (Millipore) presoaked in 0.5% polyethyleneimine in Vacuum Manifold Station, followed by 3 washes with ice-cold filtration buffer containing 50 mM Tris-HCl, pH 7.4. Filter plates were dried at 60° C. for 1 hour and 30 μl of scintillation cocktail were added to each well before radioactivity reading. Readings were performed in a Trilux 1450 Microbeta radioactive counter (Perkin Elmer).

human μ-opioid receptor = molecular target: T1, human μ-opioid receptor (Homo sapiens, UniProt P35372); assay: Human μ-opioid receptor radioligand assay ([3H]-DAMGO); assay type: binding
T1 construct: expressed in transfected cells; host or cells: CHO-K1
Method: Human μ-Opioid Receptor Radioligand Assay
To investigate binding properties of test compounds to human μ-opioid receptor, transfected CHO-K1 cell membranes and [^3H]-DAMGO (Perkin Elmer, ES-542-C), as the radioligand, were used. The assay was carried out with 20 μg of membrane suspension, 1 nM of [^3H]-DAMGO in either absence or presence of either buffer or 10 μM Naloxone for total and non-specific binding, respectively. Binding buffer contained Tris-HCl 50 mM, MgCl2 5 mM at pH 7.4. Plates were incubated at 27° C. for 60 minutes. After the incubation period, the reaction mix was then transferred to MultiScreen HTS, FC plates (Millipore), filtered and plates were washed 3 times with ice-cold 10 mM Tris-HCL (pH 7.4). Filters were dried and counted at approximately 40% efficiency in a MicroBeta scintillation counter (Perkin-Elmer) using EcoScint liquid scintillation cocktail.

[2] = human α2δ-1 enriched membranes, 15 nM [3H]-Gabapentin, read-out: α2δ-1 binding
[3] = transfected CHO-K1 cell membranes, 1 nM [3H]-DAMGO, read-out: μ binding

T1 sequence (P35372 whole entry): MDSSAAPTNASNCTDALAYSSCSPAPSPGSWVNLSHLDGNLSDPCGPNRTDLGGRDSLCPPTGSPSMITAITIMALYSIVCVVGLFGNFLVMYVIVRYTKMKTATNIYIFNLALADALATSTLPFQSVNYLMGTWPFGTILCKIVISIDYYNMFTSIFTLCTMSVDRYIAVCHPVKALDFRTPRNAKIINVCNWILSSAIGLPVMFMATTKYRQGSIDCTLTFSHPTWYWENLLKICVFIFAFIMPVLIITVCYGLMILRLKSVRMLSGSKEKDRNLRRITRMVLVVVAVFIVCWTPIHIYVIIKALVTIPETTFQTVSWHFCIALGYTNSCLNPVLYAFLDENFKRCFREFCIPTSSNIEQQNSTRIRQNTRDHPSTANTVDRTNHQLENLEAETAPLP
Chain of Human α2δ-1 subunit of Cav2.2 calcium channel (P54289 25-1103): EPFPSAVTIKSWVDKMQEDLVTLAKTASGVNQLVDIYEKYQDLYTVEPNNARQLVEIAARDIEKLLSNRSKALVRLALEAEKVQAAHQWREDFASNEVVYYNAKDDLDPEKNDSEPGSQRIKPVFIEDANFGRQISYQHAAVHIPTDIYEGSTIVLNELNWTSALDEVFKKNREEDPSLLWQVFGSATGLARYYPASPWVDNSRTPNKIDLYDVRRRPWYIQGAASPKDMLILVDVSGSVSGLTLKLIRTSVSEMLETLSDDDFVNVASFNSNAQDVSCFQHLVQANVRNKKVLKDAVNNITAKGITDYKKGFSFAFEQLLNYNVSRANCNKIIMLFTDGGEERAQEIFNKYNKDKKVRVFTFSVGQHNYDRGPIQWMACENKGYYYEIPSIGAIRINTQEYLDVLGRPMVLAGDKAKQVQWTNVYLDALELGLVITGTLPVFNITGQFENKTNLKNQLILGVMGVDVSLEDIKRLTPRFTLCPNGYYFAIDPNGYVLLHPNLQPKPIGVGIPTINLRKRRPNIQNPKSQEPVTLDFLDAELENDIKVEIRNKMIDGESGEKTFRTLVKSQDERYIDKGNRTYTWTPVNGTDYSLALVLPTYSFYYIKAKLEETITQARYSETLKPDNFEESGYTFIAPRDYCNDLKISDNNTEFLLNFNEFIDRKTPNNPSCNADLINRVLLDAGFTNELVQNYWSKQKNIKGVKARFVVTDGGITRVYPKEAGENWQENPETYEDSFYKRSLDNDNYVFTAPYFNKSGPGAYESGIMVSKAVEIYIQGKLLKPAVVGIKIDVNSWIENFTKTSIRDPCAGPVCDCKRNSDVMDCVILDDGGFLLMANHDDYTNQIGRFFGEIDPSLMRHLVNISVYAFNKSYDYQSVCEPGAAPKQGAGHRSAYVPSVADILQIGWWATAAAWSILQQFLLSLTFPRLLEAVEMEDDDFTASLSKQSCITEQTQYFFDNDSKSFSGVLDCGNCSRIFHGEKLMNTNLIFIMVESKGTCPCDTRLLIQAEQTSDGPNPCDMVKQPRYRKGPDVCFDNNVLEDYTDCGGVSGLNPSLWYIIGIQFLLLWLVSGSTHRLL

Structure (SMILES)	Ki [1]	Ki (human μ-opioid receptor)	Ki [1, 2]	Ki (human μ-opioid receptor; [3])
CC(N)c1cc(Cc2ccc(O)c(F)c2)n(-c2ccc(Cl)cc2Cl)n1 (centres unmarked) [Example 52, 4-{[3-(1-Aminoethyl)-1-(2,4-dichlorophenyl)-1H-pyrazol-5-yl]methyl}-2-fluorophenol]	< 500 nM	< 100 nM	–	–
CCNCc1cc(Cc2ccc(O)cc2)n(CC(C)C)n1 [Example 50, 4-({3-[{Ethylamino)methyl]-1-isobutyl-1H-pyrazol-5-yl}methyl)phenol]	–	–	3000 to 5000 nM	> 500 nM
COc1ccc(Cc2cc(CN)nn2Cc2ccc(Cl)cc2Cl)cc1 [Example 15, [1-(2,4-Dichlorobenzyl)-5-(4-methoxybenzyl)-1H-pyrazol-3-yl]methanamine]	–	–	500 to 3000 nM	> 500 nM
COc1ccc(-n2nc(CN)cc2Cc2ccc(O)cc2)cc1 [Example 6, 4-{[3-(Aminomethyl)-1-(4-methoxyphenyl)-1H-pyrazol-5-yl]methyl}phenol]	–	–	3000 to 5000 nM	> 500 nM
CCC(N)c1cc(Cc2ccc(O)cc2)n(-c2ccc(Cl)cc2Cl)n1 (centres unmarked) [Example 54, 4-{[3-(1-Aminopropyl)-1-(2,4-dichlorophenyl)-1H-pyrazol-5-yl]methyl}phenol]	500 to 3000 nM	100 to 500 nM	–	–
COc1ccc(Cc2cc(CN)nn2Cc2ccccc2)cc1 [Example 13, [1-Benzyl-5-(4-methoxybenzyl)-1H-pyrazol-3-yl]methanamine]	–	–	500 to 3000 nM	> 500 nM
NCCc1cc(Cc2ccc(O)cc2)n(-c2ccc(Cl)cc2Cl)n1 [Example 58, 4-{[3-(2-Aminoethyl)-1-(2,4-dichlorophenyl)-1H-pyrazol-5-yl]methyl}phenol]	3000 to 5000 nM	< 100 nM	–	–
COc1ccc(-n2nc(CN)cc2Cc2ccc(O)cc2)c(Cl)c1 [Example 37, 4-{[3-(Aminomethyl)-1-(2-chloro-4-methoxyphenyl)-1H-pyrazol-5-yl]methyl}phenol]	500 to 3000 nM	< 100 nM	–	–
NCc1cc(Cc2ccc(O)cc2)n(-c2ccc(Cl)cc2Cl)n1 [Example 38, 4-{[3-(Aminomethyl)-1-(2,4-dichlorophenyl)-1H-pyrazol-5-yl]methyl}phenol]	500 to 3000 nM	< 100 nM	–	–
CC(C)(N)c1cc(Cc2ccc(O)cc2)n(-c2ccc(Cl)cc2Cl)n1 [Example 57, 4-{[3-(2-Aminopropan-2-yl)-1-(2,4-dichlorophenyl)-1H-pyrazol-5-yl]methyl}phenol]	3000 to 5000 nM	< 100 nM	–	–
COc1cc(Cl)ccc1-n1nc(C(C)N)cc1Cc1ccc(O)cc1 (centres unmarked) [Example 29, 4-{[3-(1-Aminoethyl)-1-(4-chloro-2-methoxyphenyl)-1H-pyrazol-5-yl]methyl}phenol]	–	–	> 5000 nM	> 500 nM
COc1ccc(Cc2cc(CN)nn2-c2ccc(Cl)cc2Cl)cc1 [Example 1, [1-(2,4-Dichlorophenyl)-5-(4-methoxybenzyl)-1H-pyrazol-3yl]methanamine]	< 500 nM	100 to 500 nM	–	–
COc1ccc(Cc2cc(CN)nn2CC(C)C)cc1 [Example 11, [1-Isobutyl-5-(4-methoxybenzyl)-1H-pyrazol-3-yl]methanamine]	–	–	500 to 3000 nM	> 500 nM
COc1ccc(Cc2cc(CN)nn2Cc2ccccc2Cl)cc1 [Example 14, [1-(2-Chlorobenzyl)-5-(4-methoxybenzyl)-1H-pyrazol-3-yl]methanamine]	–	–	500 to 3000 nM	> 500 nM
NCc1cc(Cc2ccc(O)cc2)n(-c2ccccc2Cl)n1 [Example 39, 4-{[3-(Aminomethyl)-1-(2-chlorophenyl)-1H-pyrazol-5-yl]methyl}phenol]	–	–	500 to 3000 nM	> 500 nM
COc1ccc(-n2nc(C(C)N)cc2Cc2ccc(O)cc2)c(Cl)c1 (centres unmarked) [Example 27, 4-{[3-(1-Aminoethyl)-1-(2-chloro-4-methoxyphenyl)-1H-pyrazol-5-yl]methyl}phenol]	< 500 nM	< 100 nM	–	–
CCOc1ccc(Cc2cc(C(C)N)nn2-c2ccc(Cl)cc2Cl)cc1 (centres unmarked) [Example 25, 1-[1-(2,4-Dichlorophenyl)-5-(4-ethoxybenzyl)-1H-pyrazol-3-yl]ethanamine]	–	–	500 to 3000 nM	> 500 nM
CCCC(N)c1cc(Cc2ccc(O)c(F)c2)n(-c2ccc(Cl)cc2Cl)n1 (centres unmarked) [Example 53, 4-{[3-(1-Aminobutyl)-1-(2,4-dichlorophenyl)-1H-pyrazol-5-yl]methyl}-2-fluorophenol]	< 500 nM	< 100 nM	–	–
NC(CC(=O)O)c1cc(Cc2ccc(O)cc2)n(-c2ccc(Cl)cc2Cl)n1 (centres unmarked) [Example 76, 3-Amino-3-[1-(2,4-dichlorophenyl)-5-(4-hydroxybenzyl)-1H-pyrazol-3-yl]propanoic acid]	> 5000 nM	100 to 500 nM	–	–

Structure (SMILES)	Ki [1]	Ki (human μ-opioid receptor)	Ki [1, 2]	Ki (human μ-opioid receptor; [3])
CC(N)c1cc(Cc2ccc(O)cc2)n(-c2ccc(Cl)cc2Cl)n1 (centres unmarked) [Example 51, 4-{[3-(1-Aminoethyl)-1-(2,4-dichlorophenyl)-1H-pyrazol-5-yl]methyl}phenol]	< 500 nM	< 100 nM	–	–
NCc1cc(Cc2cccc(O)c2)n(-c2ccc(Cl)cc2Cl)n1 [Example 34, 3-{[3-(Aminomethyl)-1-(2,4-dichlorophenyl)-1H-pyrazol-5-yl]methyl}phenol]	500 to 3000 nM	100 to 500 nM	–	–
CC(N)c1cc(Cc2ccc(OCCO)cc2)n(-c2ccc(Cl)cc2Cl)n1 (centres unmarked) [Example 75, 2-(4-{[3-(1-Aminoethyl)-1-(2,4-dichlorophenyl)-1H-pyrazol-5-yl]methyl}phenoxy)ethan-1-ol]	–	–	500 to 3000 nM	> 500 nM
CC(N)c1cc(Cc2ccc(O)cc2)n(C2CCOCC2)n1 (centres unmarked) [Example 66, 4-{[3-(1-Aminoethyl)-1-(tetrahydro-2H-pyran-4-yl)-1H-pyrazol-5-yl]methyl}phenol]	–	–	> 5000 nM	> 500 nM
C[C@@H](N)c1cc(Cc2ccc(O)cc2)n(-c2ccc(Cl)cc2Cl)n1 [Example 62, (R)-4-{[3-(1-Aminoethyl)-1-(2,4-dichlorophenyl)-1H-pyrazol-5-yl]methyl}phenol]	500 to 3000 nM	< 100 nM	–	–
NCc1cc(Cc2ccc(O)cc2)n(-c2ccc(Cl)cc2)n1 [Example 40, 4-{[3-(Aminomethyl)-1-(4-chlorophenyl)-1H-pyrazol-5-yl]methyl}phenol]	–	–	3000 to 5000 nM	> 500 nM
COc1ccc(Cc2cc(C(C)N)nn2-c2ccc(Cl)cc2Cl)cc1 (centres unmarked) [Example 24, 1-[1-(2,4-Dichlorophenyl)-5-(4-methoxybenzyl)-1H-pyrazol-3-yl]ethanamine]	500 to 3000 nM	100 to 500 nM	–	–
CC(CN)c1cc(Cc2ccc(O)cc2)n(-c2ccc(Cl)cc2Cl)n1 (centres unmarked) [Example 59, 4-{[3-(1-Aminopropan-2-yl)-1-(2,4-dichlorophenyl)-1H-pyrazol-5-yl]methyl}phenol]	> 5000 nM	< 100 nM	–	–
COc1ccc(Cc2cc(C(C)N)nn2-c2ccc(Cl)cc2Cl)cc1F (centres unmarked) [Example 30]	–	–	> 5000 nM	> 500 nM
COc1ccc(Cc2cc(CN)nn2-c2ccccn2)cc1 [Example 20, [5-(4-Methoxybenzyl)-1-(pyridin-2-yl)-1H-pyrazol-3-yl]methanamine]	–	–	3000 to 5000 nM	> 500 nM
COc1cccc(Cc2cc(CN)nn2-c2ccc(Cl)cc2Cl)c1 [Example 8, [1-(2,4-Dichlorophenyl)-5-(3-methoxybenzyl)-1H-pyrazol-3-yl]methanamine]	–	–	500 to 3000 nM	> 500 nM
CC(N)c1cc(Cc2ccc(O)cc2)n(CCc2ccccc2)n1 (centres unmarked) [Example 67, 4-{[3-(1-Aminoethyl)-1-phenethyl-1H-pyrazol-5-yl]methyl}phenol]	–	–	> 5000 nM	> 500 nM
CC(N)c1cc(Cc2ccc(NS(C)(=O)=O)cc2)n(-c2ccc(Cl)cc2Cl)n1 (centres unmarked) [Example 26, N-(4-{[3-(1-Aminoethyl)-1-(2,4-dichlorophenyl)-1H-pyrazol-5-yl]methyl}phenyl)methanesulfonamide]	–	–	500 to 3000 nM	> 500 nM
COc1ccc(Cl)c(-n2nc(C(C)N)cc2Cc2ccc(O)cc2)c1 (centres unmarked) [Example 28, 4-{[3-(1-Aminoethyl)-1-(2-chloro-5-methoxyphenyl)-1H-pyrazol-5-yl]methyl}phenol]	–	–	> 5000 nM	> 500 nM
CS(=O)(=O)Nc1ccc(Oc2cc(CN)nn2-c2ccc(Cl)cc2Cl)cc1 [Example 18, N-(4-{[3-(Aminomethyl)-1-(2,4-dichlorophenyl)-1H-pyrazol-5-yl]oxy}phenyl)methanesulfonamide]	–	–	> 5000 nM	> 500 nM
NCc1cc(Cc2ccc(Nc3nccs3)cc2)n(-c2ccc(Cl)cc2Cl)n1 [Example 74, N-(4-{[3-(Aminomethyl)-1-(2,4-dichlorophenyl)-1H-pyrazol-5-yl]methyl}phenyl)thiazol-2-amine]	–	–	500 to 3000 nM	> 500 nM
NCc1cc(Cc2ccccc2)n(-c2cccc(O)c2)n1 [Example 36, 3-[3-(Aminomethyl)-5-benzyl-1H-pyrazol-1-yl]phenol]	–	–	3000 to 5000 nM	> 500 nM
NCc1cc(Cc2ccccc2)n(-c2ccc(O)cc2)n1 [Example 35, 4-[3-(Aminomethyl)-5-benzyl-1H-pyrazol-1-yl]phenol]	–	–	3000 to 5000 nM	> 500 nM
